Laboratory results reported in patent US9012482B2, “Drug containing benzophenone derivative or its salt” (Toyama Chemical Co., Ltd., priority 2007, dated 2015).

Experiments:
Assay type in all cases: in vivo, mouse (DBA/1 J)
OPG mRNA = OPG mRNA expression in hind paws of mice with type II collagen-induced arthritis (real-time PCR); settings: 30 mg/kg orally once daily
Protocol: Male DBA/1 J mice at 8-week old (Charles River Laboratories Japan, Inc.) were used. Bovine type II collagen (KOKEN CO., LTD.) dissolved at 2 mg/mL in 0.1 mol/L acetic acid was mixed and emulsified with an equal volume of Freund's complete adjuvant (Difco Laboratories, Inc.), and then 0.2 mL of the emulsion was intradermally injected at the tail head of each mouse. The same treatment was carried out 21 days after the first immunization so that type II collagen-induced arthritis was induced in mice. […]
(§1) RT product (100 ng, equivalent amount to RNA) was mixed with 25 μL of quantitative PCR reagent (qPCR Mastermix, Eurogentec S.A.), 2.5 μL of probe/primer solution (TaqMan gene expression assays tumor necrosis factor (ligand) superfamily member 11 Mus musculus, Applied Biosystems) and RNase-free water (Takara Inc.) in total volume of 50 μL, and then PCR reaction (hold at 50° C. for 2 min, hold at 95° C. for 10 min, 40 cycles at 95° C. for 15 sec and at 60° C. for 1 min) was carried out using real-time PCR system (ABI PRISM 7700 sequence detection system, Applied Biosystems) to measure RANKL mRNA. […] The levels of RANKL mRNA and OPG mRNA were expressed as the normalized ratio to Hprt1 mRNA amount.

[1] = system: femora of mice with type II collagen-induced arthritis; assay: Osteoporosis in femur of mice with type II collagen-induced arthritis: bone density as CT value (μCT)
Protocol: The induction of mouse type II collagen-induced arthritis and the preparation of T-5224-dosing solution (1 mg/mL) were carried out by the same procedure in Example 1. T-5224 at 10 mg/kg was orally administered once daily from 21 to 49 days after the first immunization. PVP solution was administered to the mice in Control group.
The femora isolated on the next day of final administration were fixed with formalin, and then scanned using μCT scanner system (MCT-100CB, Hitachi, Ltd.) (X-ray tube voltage: 90.0 kV, X-ray tube current: 100 iris: 3630, magnification: ×5, resolution: 30 μm). Bone density was evaluated as CT value using 3D CT image (“img” format) assembled by μCT scanner system and bone morphometry software (TRI-3D/BON, Ratoc System Engineering Co., Ltd.) according to the manufacturer's protocol. The evaluation site was set on a metaphyseal slice with 0.35 mm thickness at a point 3% of the length of the femur from the distal growth plate, according to the report of Jochems C. et al. [Arthritis Research and Therapy, 2005, Vol. 7, page R837-R843].

RANKL mRNA = RANKL mRNA expression in hind paws of mice with type II collagen-induced arthritis (real-time PCR)
Protocol: Male DBA/1 J mice at 8-week old (Charles River Laboratories Japan, Inc.) were used. Bovine type II collagen (KOKEN CO., LTD.) dissolved at 2 mg/mL in 0.1 mol/L acetic acid was mixed and emulsified with an equal volume of Freund's complete adjuvant (Difco Laboratories, Inc.), and then 0.2 mL of the emulsion was intradermally injected at the tail head of each mouse. The same treatment was carried out 21 days after the first immunization so that type II collagen-induced arthritis was induced in mice. T-5224 was dissolved in the 2-fold molar amount of sodium hydroxide solution, and then water and polyvinylpyrrolidone (PVP) at 3-fold weight of T-5224 were added to yield 3 mg/mL of T-5224-dosing solution. T-5224 at 30 mg/kg was orally administered once daily from 21 to 34 days after the first immunization. PVP solution was administered to the mice in Control group.
On the next day of final administration, the hind paws were collected. After the excision of claws and skin, they were immersed in RNA-stabilizing agent (RNAlater, Ambion, Inc.) and kept in a refrigerator overnight. Then RNA-stabilizing agent was wiped up, and the hind paws were cryopreserved and crushed by pressing under cooling with the liquid nitrogen. […]
as §1

Compound: O=C(O)CCc1cc(C(=O)c2ccc(OC3CCCC3)cc2O)ccc1OCc1ccc2c(O)noc2c1 [T-5224]
- inhibition of the decrease of OPG mRNA level (OPG mRNA; days 21 to 34): 68%
- OPG mRNA level (normalized ratio to Hprt1 mRNA amount) (OPG mRNA; collagen-induced arthritis mice, days 21 to 34 after first immunization, Normal 0.375, Control 0.156): 0.306
- inhibition of the reduction of CT value ([1]; 10 mg/kg orally once daily, days 21 to 49, femur): 49%
- CT Value (bone density) ([1]; femur metaphyseal slice, 10 mg/kg orally once daily, days 21 to 49 after first immunization, Normal 761, Control 657): 708
- effect on development of osteoporosis in femora (in words) ([1]; non-arthritic region of mice with type II collagen-induced arthritis, 10 mg/kg orally): inhibited the development of osteoporosis in femora
- inhibition of the increase of RANKL mRNA level (RANKL mRNA; 30 mg/kg orally once daily, days 21 to 34, hind paws): 84%
- regulatory effect on expression of RANKL/OPG (in words) (RANKL mRNA; hind paws of mice with type II collagen-induced arthritis, 30 mg/kg orally): controlling the expression of RANKL/OPG to normal level
- RANKL mRNA level (normalized ratio to Hprt1 mRNA amount) (RANKL mRNA; hind paws, collagen-induced arthritis mice, 30 mg/kg orally once daily, days 21 to 34 after first immunization, Normal 0.096, Control 0.927): 0.224
